In data set [1] the test system is NSCLC cells (A549, H460, H1299). The data set is described as follows: Colony formation assay. Format: cell-based, human. Conditions: 10 and 20 μM, 7 days, crystal violet, all NSCLCs. How it is done: (§1) Lung cancer cells were seeded at a density of 10^3 cells in a 35 mm dish and cultured with the peptide for 7 days, until macroscopic colonies formed. Following incubation, the cells were washed and stained with 0.1% crystal violet for 30 min, and the colonies were imaged and counted. Cell morphology was observed and captured at ×10 magnification using an inverted light microscope.

Data set [2] deals with lung cancer cells. The data set is described as follows: Cell morphology by inverted light microscope. Format: cell-based, human. Particulars: 10 μM MP28, lung cancer cells. The protocol:
as §1

The test system of a further data set is horse blood erythrocytes. Put plainly: Hemolytic activity assay. Format: cell-based. Conditions: 20 μM. The source says: In this assay, 1% Triton X-100, which causes 100% hemolysis of horse blood erythrocytes, was used as a positive control to indicate complete cell lysis. DW solution served as a negative control, indicating no hemolytic activity.
For data set [3], the system named is NSCLC cells. Put plainly: Transwell migration assay. Format: cell-based, human. Particulars: Transwell 8 μm pores, 10 μM. How it is done: (§2) Cell migration and invasion were assessed using Transwell chambers with 8 μm pores (BD Biosciences). Cancer cells (2 × 10^4) were seeded in serum-free medium in the upper chamber, while medium containing 10% FBS was placed in the lower chamber. Matrigel-coated upper chambers were used for invasion assays. Following incubation, the migratory and invasive cells were fixed, stained with crystal violet, and imaged under a light microscope.

The subject of data set [4] is NSCLC cells. The data set is described as follows: Transwell invasion assay (Matrigel-coated). Format: cell-based, human. Particulars: 10 μM. The protocol:
as §2

Data set [5] deals with cellular vimentin in lung cancer cells. Put plainly: Vimentin immunofluorescence staining. Format: cell-based, human. Conditions: 10 μM MP28, immunofluorescence.
The subject of data set [6] is lung cancer cells. The data set is described as follows: Wound-healing assay. Format: cell-based, human. Conditions: more pronounced at 24 h. How it is done:
For the wound-healing assays, cancer cells were grown to >90% confluence in 6-well plates, and scratches were created using a pipette tip. After washing, the cells were incubated in a medium with 10% FBS for 18 h and 24 h. Wound closure was monitored using an inverted phase-contrast microscope (CKX53, Olympus, Shinjuku, Tokyo, Japan), and migration was quantified by measuring the distance between wound edges at multiple sites.

In the next data set the test system is A549 cells. The data set is described as follows: Annexin V/PI staining, flow cytometry. Format: cell-based, human. Particulars: A549, upper end of the increase (20 μM). How it is done:
(§3) The treated cells (1 × 10^6) were harvested, washed with PBS, and collected by centrifugation. Cells were stained with Annexin V and propidium iodide (PI) solution (556547; BD Biosciences, San Jose, CA, USA), followed by incubation at 37 °C for 15 min. […] As a negative control, z-VAD-FMK was added to each experimental condition according to the manufacturer’s instructions (ab65615; caspase 9 FITC staining kit). The cells were resuspended in 300 μL of a washing buffer and were analyzed by a flow cytometer (Accuri C6 Plus; BD Biosciences, San Jose, CA, USA).
For orientation: A flow cytometer gives signals particle by particle.

A further data set concerns H1299 cells. The data set is described as follows: Annexin V/PI staining, flow cytometry. Format: cell-based, human. The protocol:
as §3

The next data set deals with H460 cells. The data set is described as follows: Annexin V/PI staining, flow cytometry. Format: cell-based, human. How it is done:
as §3

Data set [7] deals with caspase-9 in NSCLC cells (A549, H460, H1299). Put plainly: Active caspase-9 (FITC-LEHD-FMK) staining. Format: cell-based, human. How it is done: as §3
Data set [8] has as its system A549 xenograft in BALB/c nude mice. Put plainly: A549 xenograft tumor growth. Format: in vivo, mouse. Conditions: 20 mg/kg intratumorally, every other day, six injections, subcutaneous A549. The protocol:
(§4) Xenograft tumors were generated by subcutaneous injection of A549 lung cancer cells (1 × 10^6 cells/100 µL) into the right flanks of BALB/c female nude mice (5 weeks of age, n = 20). […] The control mice were injected with equal volumes of DW. The tumor size was measured using a caliper (calculated volume = shortest diameter^2 × […]) at 2- or 3-day intervals. The methods were performed in accordance with the relevant guidelines and regulations and were approved by the Animal Care and Use Committee (IACUC) of the National Marine Biodiversity Institute of Korea (Approval No.: MAB-004; approval date: 2 December 2024).

Data set [9] can be described thus: Body weight in the A549 xenograft model. Format: in vivo, mouse. Particulars: 20 mg/kg intratumorally, six injections, during the treatment period. How it is done:
as §4

Residues, ends and D or L forms follow the SMILES beside them.

Consider `CC(C)C[C@H](NC(=O)[C@H](Cc1c[nH]c2ccccc12)NC(=O)[C@@H]1CCCN1C(=O)[C@H](CCCCN)NC(=O)[C@H](CCCCN)NC(=O)[C@H](CS)NC(=O)[C@@H](N)CS)C(=O)N[C@@H](CCCNC(=N)N)C(=O)N[C@@H](CS)C(=O)N[C@@H](Cc1c[nH]c2ccccc12)C(=O)N[C@@H](CCCNC(=N)N)C(=O)N[C@H](C(=O)N[C@@H](CS)C(=O)N[C@@H](CC(C)C)C(=O)N1CCC[C@H]1C(=O)N[C@@H](CO)C(=O)N[C@@H](CCCNC(=N)N)C(=O)N[C@@H](Cc1c[nH]c2ccccc12)C(=O)N[C@@H](CCC(N)=O)C(=O)N[C@@H](CCCNC(=N)N)C(=O)N[C@@H](CCC(=O)O)C(=O)N[C@@H](CCCNC(=N)N)C(=O)N[C@@H](Cc1ccccc1)C(=O)NCC(=O)N[C@@H](CCCNC(=N)N)C(=O)N[C@@H](CCCCN)C(=O)N[C@@H](CS)C(N)=O)[C@@H](C)O` [MP28] (H-CCKKPWLRCWRTCLPSRWQRERFGRKC-NH2; N-terminus assumed), for which the “colony formation (long term cell proliferation)” value in data set [1] is reported as “markedly reduced cell growth”. Also, the morphological changes entry with lung cancer cells [2] is listed as “morphological changes from a spindle to a cobblestone-like shape”. The “hemolysis (in words)” value with horse blood erythrocytes is on record as “no or minimal hemolysis”. Besides, the migratory capacity entry in the data set on NSCLC cells [3] is listed as “significantly reduced”. Moreover, the invasive capacity entry in the data set with NSCLC cells [4] is reported as “significantly reduced”. Besides, the cellular vimentin level result in [5] is given as “decreased the levels of cellular vimentin”. The “residual wound area versus control” value in the data set with lung cancer cells [6] is reported as “larger residual wound areas”. Besides, the “percentage of apoptotic cells” value in the data set on A549 cells came out at 15.6%; in the data set on H1299 cells (H1299, lower end of the increase (10 μM as read from the text)), 3.1%; in the data set with H1299 cells (H1299, upper end of the increase (20 μM)), 17.8%; in the data set with H460 cells (H460, lower end of the increase (10 μM as read from the text)) it was 7.5%; in the data set with H460 cells (H460, upper end of the increase (20 μM)), 19.2%. For the same compound, the caspase-9 activation result in data set [7] (10 μM MP28 for 3 h, NSCLCs, FITC fluorescence microscopy and flow cytometry) is recorded as “triggered caspase-9 activation”. The “induction of cleaved caspase-9” value in [7] (A549 and H460 cells (wild-type p53)) was “more rapid and robust induction of cleaved caspase-9”; in data set [7] (H1299 cells (p53-deficient)), “weaker activation signal”. Also, in data set [8], the “tumor growth versus control” value is listed as “tumor growth was significantly slower”. The “body weight versus control” value in data set [9] was “No significant loss of body weight”.

(Values after PMC12734986 (Marine Drugs, 2025).)
